In brackets after ≈: the same amount, converted by molar mass. Several values for one entry are separate records, joined by “and”; a condition that tells them apart may be missing. Equal values may be shown once.
Key:
Polio I [1] = assay: organism not typed; type: cell-based; conditions: Vero
Vero cells = assay: cytotoxicity against Vero cells; type: cell-based, African green monkey; conditions: Vero cells; for Cytotoxicity CTD50: 50% inhibition of the cell growth; for Cytotoxicity CTD0: maximal non-toxic concentration
Protocol: (§1) In preparing the compounds for testing, they were handled aseptically throughout. The compounds were dissolved in a minimum amount of a suitable solvent, and the final dilutions were made up to the required volume in a complete culture medium in a concentration not exceeding the predetermined maximum non-cytotoxic levels.
(§2) The cell cultures used in all primary in vitro antipicorna virus screening tests were an established cell line of the African green monkey kidney (VERO), a primary cell culture of the Cercopythecus monkey kidney, or human embryonic lung diploid cells WI-38.
(§3) The cytotoxic stuides were performed on each of the compounds to determine the level of response of the cells used to the potentially toxic action of the substances.
(§4) The cells were grown in test tubes in a suitable medium. Immediately before use the initial medium was replaced with the one which contained the test compound in an appropriate concentration. After the virus was added, the infected culture was incubated at 37° C for a number of days and the cytopathic effect of the virus observed and recorded. The results were read every day in all of the tubes and the destruction of cells assessed in precentage of the cell sheet destroyed: 0-25-50-75-100%. As controls, cells with only virus (for cytopathic effect) or with only the compound (for cytotoxic effect) were used as well as the normal, uninfected cells (no cytotoxic -- no cytopathic effects).

[2] = system: viruses of the Picorna group; assay: antiviral activity (general statements); type: cell-based; conditions: result in words
Protocol: The in vitro activity of representative compounds of the present invention are set forth below.
as §1, §2, §4
Net difference in cytopathic effect between treated and control tubes expressed in percentage give the extent of the inhibitory activity of the substance.

Polio I [3] = assay: cells; type: cell-based; conditions: Primates
[4] = cytotoxicity against Vero cells; type: cell-based, African green monkey; conditions: african green monkey
Protocol: as §1, §2, §3, §4

Acetylated 5-(3',4',5'-trimethoxybenzal) hydantoin [Example 23]
% Inhibition (Polio I [1]; 316 TCID50, 0.1 μg/ml): 0%
% Inhibition (Polio I [1]; 316 TCID50, 0.3 μg/ml): 14%
% Inhibition (Polio I [1]; 316 TCID50, 0.7 μg/ml): 36%
% Inhibition (Polio I [1]; 316 TCID50, 1 μg/ml): 46%
% Inhibition (Polio I [1]; 316 TCID50, 3.3 μg/ml): 56%
% Inhibition (Polio I [1]; 316 TCID50, 6.7 μg/ml): 72%
% Inhibition (Polio I [1]; 316 TCID50, 10 μg/ml): 96%
Cytotoxicity CTD50 (Vero cells): 50 µg/mL
Cytotoxicity CTD0 (Vero cells): 10 µg/mL

Acetylated 5-(3',5'-dimethoxybenzal) hydantoin [Example 21]
% Inhibition (Polio I [1]; 10 TCID50, 0.5 μg/ml): 15%
% Inhibition (Polio I [1]; 10 TCID50, 1 μg/ml): 50%
% Inhibition (Polio I [1]; 10 TCID50, 5 μg/ml): 100%
% Inhibition (Polio I [1]; 10 TCID50, 10 μg/ml): 100%
% Inhibition (Polio I [1]; 100 TCID50, 0.5 μg/ml): 0%
% Inhibition (Polio I [1]; 100 TCID50, 1 μg/ml): 32%
% Inhibition (Polio I [1]; 100 TCID50, 5 μg/ml): 100%
% Inhibition (Polio I [1]; 100 TCID50, 10 μg/ml): 100%
Cytotoxicity CTD50 (Vero cells): > 100 µg/mL and 100 µg/mL
Cytotoxicity CTD0 (Vero cells): 100 µg/mL

Acetylated 5-benzalhydantoin [Example 16]
Cytotoxicity CTD50 (Vero cells): 83 µg/mL
Cytotoxicity CTD0 (Vero cells): 10 µg/mL

Acetylated 5-(2',4',5'-trimethoxybenzal) hydantoin [Example 22]
% Inhibition (Polio I [1]; 10 TCID50, 0.01 μg/ml): 4%
% Inhibition (Polio I [1]; 10 TCID50, 0.03 μg/ml): 8%
% Inhibition (Polio I [1]; 10 TCID50, 0.07 μg/ml): 27%
% Inhibition (Polio I [1]; 10 TCID50, 0.1 μg/ml): 54%
% Inhibition (Polio I [1]; 10 TCID50, 0.3 μg/ml): 98%
% Inhibition (Polio I [1]; 10 TCID50, 0.7 μg/ml): 98%
% Inhibition (Polio I [1]; 10 TCID50, 1 μg/ml): 100%
% Inhibition (Polio I [1]; 100 TCID50, 0.01 μg/ml): 0%
% Inhibition (Polio I [1]; 100 TCID50, 0.03 μg/ml): 0%
% Inhibition (Polio I [1]; 100 TCID50, 0.07 μg/ml): 25%
% Inhibition (Polio I [1]; 100 TCID50, 0.1 μg/ml): 50%
% Inhibition (Polio I [1]; 100 TCID50, 0.3 μg/ml): 90%
% Inhibition (Polio I [1]; 100 TCID50, 0.7 μg/ml): 93%
% Inhibition (Polio I [1]; 100 TCID50, 1 μg/ml): 100%
Cytotoxicity CTD50 (Vero cells): > 100 µg/mL
Cytotoxicity CTD0 (Vero cells): 1 µg/mL

Acetylated 5-(3',4'-dimethoxybenzal) hydantoin
degree of antiviral activity ([2]; listed as Example 30): highly effective against Picorna group of viruses
degree of antiviral activity ([2]; listed as acetylated 5-(3',4'-dimethoxybenzal) hydantoin (anhydrous sodium acetate and ace)): exceptionally good antiviral activity

Acetylated 5-(3'-methoxy-4'-acetoxybenzal) hydantoin [Example 15]
Cytotoxicity CTD50 (Vero cells): > 100 µg/mL
Cytotoxicity CTD0 (Vero cells): > 10 µg/mL

COc1ccc(C=C2NC(=O)NC2=O)cc1OC [5-(3',4'-DIMETHOXYBENZAL) HYDANTOIN, 5-(3',4'-Dimethoxybenzal) hydantoin]
inhibition at 50 µg/mL (Polio I [3]): 34%
inhibition at 100 µg/mL (Polio I [3]): 45%

N-monoacetylated 5-(3',4'-dimethoxybenzal) hydantoin [Example 31]
% Inhibition (Polio I [1]; 316 TCID50, 1 μg/ml): 0%
% Inhibition (Polio I [1]; 316 TCID50, 5 μg/ml): 0%
% Inhibition (Polio I [1]; 316 TCID50, 10 μg/ml): 7%
% Inhibition (Polio I [1]; 316 TCID50, 50 μg/ml): 84%
Cytotoxicity CTD50 (Vero cells): 100 µg/mL
Cytotoxicity CTD0 (Vero cells): 10 µg/mL
anti-viral activity in tissue culture tests [2]: more active than the unacetylated compound

COc1ccc(C=C2C(=O)N(C(C)=O)C(=O)N2C(C)=O)cc1OC [Example 32, N,N-diacetylated 5-(3',4'-dimethoxybenzal) hydantoin]
inhibition at 1 µg/mL (Polio I [1]; 316 TCID50, 1 μg/ml): 100%
inhibition at 5 µg/mL (Polio I [1]; 316 TCID50, 5 μg/ml): 100%
inhibition at 10 µg/mL (Polio I [1]; 316 TCID50, 10 μg/ml): 100%
inhibition at 50 µg/mL (Polio I [1]; 316 TCID50, 50 μg/ml): 100%
CC50 ([4]; vero cells, read-out: Cytotoxicity CTD50): 33 µg/mL (≈ 99.3 µM)
MNTC ([4]; Vero cells, maximal non-toxic concentration, read-out: Cytotoxicity CTD0): 10 µg/mL
anti-viral activity in tissue culture tests [2]: much greater anti-viral activity than the former
